We go through 6 compounds from patent publication US6057366A (priority 1994, dated 2000).

Data set [1] concerns lactating mammary gland. The format is in vivo, mouse. Conditions: for activity in inducing widespread lactating mammary gland necrosis: 50-100 mg/kg body weight. The source says:
(§1) White lactating female Quackenbush mice of body weight 40-50 g were used. All animal experiments followed the code of practice for the care and use of animals for experimental purposes as outlined by the Australian National Health and Medical Research Council. For the toxicity testing of leaf and crude extracts, on the fourth day after parturition the litter of each mouse was reduced to eight pups and weights of dam and litter respectively recorded. The dam was then separated from the litter and fasted overnight. On the following day and for 24 hours thereafter, the dam was offered 20 g of powdered commercial rodent diet containing 5% of powdered freeze-dried avocado leaf. In the case of preliminary organic extracts of the leaf, equivalent quantities were added to 20 g of powdered rodent diet, mixed thoroughly and the solvent evaporated under reduced pressure. After 24 hours on the medicated diet, regular untreated cubed diet was provided and the litter restored to the dam. At later stages of the isolation and purification of the active principle, the compound was suspended in up to 1 ml of 1% Tween 80 or Intralipid and given as a single dose by gavage on days 4 to 5 of lactation without prior fasting of the dam and simultaneous temporary removal of her pups. The dam and her pups were weighed daily. […] From 3 to 7 days after exposure to the avocado supplemented diet, or gavage of the purified extracts as the case may be, the dam was euthanased with carbon dioxide and all mammary glands and heart removed and fixed in buffered neutral 10% formalin for pathological examination.
The R and S isomers of persin were tested for activity required to induce widespread lactating mammary gland necrosis at the dose rate of 50-100 mg/kg body weight.

In data set [2] the test system is human breast cancer cell lines (MCF7, ZR75, T47D). Put plainly: Neutral red dye uptake assay (in vitro cytotoxicity), human breast cancer cell lines. In kind it is cell-based. Conditions: 10 to 0.3125 μg/ml, 20 hours incubation, average of 2 experiments, actual concentration reaching the cells unknown. The source says: For purposes of using a rapid, simple and cheap method of pre-screening cytotoxicity, we chose the neutral red dye uptake procedure to test such activity in the given extract.
Human breast and ovarian cancer cell lines were maintained in RPMI 1640 culture medium supplemented with 10% fetal calf serum, 2 mm L-glutamine and penicillin, streptomycin and fungizone. Cells were passaged by trypsinization and plated in 96-well flat-bottomed tissue culture plates at 5×10^4 cells per well. Cells were preincubated for 6 hours at 37° C., 5% CO2 in a humidified atmosphere to allow cell attachment prior to addition of the extract.
Persin was dissolved in DMF (supplied by National Research Centre for Environmental Toxicology) to give a stock solution of 100 μg/ml. […] 10 μl of the solution was added to quadruplicate wells in doubling dilution from 10 μg/ml to 0.3125 μg/ml (final concentration). Control wells had tissue culture diluent added only. DMF controls had DMF added to a final concentration of 0.1%. The extract was incubated with the cells for 20 hours before being gently aspirated. Cells were washed twice with Hanks Balanced Salt Solution (HBSS) with centrifugation in special microtiter plate carriers between washes so as not to lose viable but dislodged cells.
Neutral red was prepared fresh before each experiment from a 1% stock solution. One hundred microtiters of working solution (67 μg/ml in HBSS) was added to all wells and incubation continued for a further 4 hours. Non-absorbed dye was removed by washing cells as described above.
Absorbed dye was extracted from cells by adding 100 μl of 50% ethanol in 1% acetic acid.
Plates were mixed thoroughly to allow full extraction of the dye and were then read in a Multiscan plate reader at 540 nm. Dose response curves were constructed by plotting the percentage of untreated/control well OD540 versus concentration of extract. Individual extract concentration points were tested in quadruplicate and the results presented are averaged from 2 separate experiments. […]

The subject of data set [3] is lactating mammary gland. The format is in vivo. The settings on record: even as high single dose 200 mg/kg, mouse.
Data set [4] has as its system lactating mammary gland. Conditions: Craigmill et al. (1989), cited from earlier work.
In a further data set the test system is avocado lipoxygenase. Conditions: declines during ripening of the fruit; cited from earlier work.
In data set [5] the test system is human colon cancer cell line (LS174T). In words: Neutral red dye uptake assay (in vitro cytotoxicity), human colon cancer cell line. The settings on record: any dose tested (10 to 0.3125 μg/ml), 20 hours. The format is cell-based.
Data set [6] can be described thus: Pathological effects on the myocardium after oral dosing. The format is in vivo, mouse. The settings on record: myocardium; mouse, oral; read-out: dose above which necrosis of myocardial fibres may occur.
From the text: as §1

In another data set the test system is myocardium. The description is as above. The format is in vivo, mouse.
From the text: as §1

The test system of another data set is silkworm larvae. Conditions: isolated from avocado leaves; Chang et al. 1975; cited from earlier work.
The subject of data set [7] is Colletotrichum gloeosporioides. Conditions: cited from earlier work.
Data set [8] concerns heat and lactating mammary gland of the mouse. Conditions: Sani et al., 1993 symposium; cited from earlier work.

Entries after “also recorded” stand apart in the source; their conditions may differ.

Regarding `CCCCC/C=C\C/C=C\CCCCCCCC(=O)CC(O)COC(C)=O` (racemic) [mixture of isomers in equal proportions], in the data set with lactating mammary gland [1] (mouse), the “activity in inducing widespread lactating mammary gland necrosis” value is listed as “less active than the R isomer”.

In the case of `CCCCCCCCCCCCCCCCCC(=O)C[C@@H](O)COC(C)=O` [RMC328, (R)-2-Hydroxy-4-oxohenicosan-1-yl Acetate], the “sensitivity of human breast cancer cell lines relative to other cell lines (neutral red uptake)” value in data set [2] was “the three human breast cancer cell lines showing the greatest sensitivity to the compounds”.

With `CCCCC/C=C\C/C=C\CCCCCCCC(=O)C[C@H](O)COC(C)=O` [S isomer, (2S)-2-hydroxy-4-oxo-henicosa-12Z,15Z-dien-1-yl acetate], the “activity in inducing widespread lactating mammary gland necrosis (high single dose)” value in the data set on lactating mammary gland [3] is “inactive”.

With `COc1cc2c(c(OC)c1OC)-c1ccc(OC)c(=O)cc1[C@@H](NC(C)=O)CC2` [colchicine], in the data set on lactating mammary gland [4], the “mechanism: microtubule inhibition” value was “microtubule inhibitors”. Besides, the “effect on milk ejection from secretory acinar cells” value with lactating mammary gland [4] (locally applied to the acinar cells) is “prevent ejection of milk from the cells into the acinar lumen”.

Regarding `Oc1cc(O)c2c(c1)O[C@H](c1ccc(O)c(O)c1)[C@H](O)C2` [epicatechin], the “inhibition of avocado lipoxygenase” value in the data set on avocado lipoxygenase is given as “inhibitor of the enzyme”.

As to `CCCCC/C=C\C/C=C\CCCCCCCC(=O)C[C@@H](O)COC(C)=O` [persin, (+)-(Z,Z)-1-acetyloxy-2-hydroxy-12,15-heneicosadien-4-one], the “sensitivity of human breast cancer cell lines relative to other cell lines (neutral red uptake)” value in data set [2] is on record as “Three human breast cancer cell lines showed greater sensitivity to the extract than other cell lines tested; also recorded: the three human breast cancer cell lines showing the greatest sensitivity to the compounds”; in [2] (listed as extract), “the human breast cancer cell lines were more sensitive to the extract than the other cell lines”. In addition, in [5], the “effect on human colon cancer cell line (neutral red uptake)” value is reported as “not affected by the extract at any dose tested”. In addition, the “activity in inducing widespread lactating mammary gland necrosis” value in the data set on lactating mammary gland [1] (mouse) is “active”. The “mammary epithelium histology (FIG. 9A)” value in the data set on lactating mammary gland [1] (72 hours after single oral dose of 60 mg/kg on 4th day of lactation) is reported as “extensive coagulative necrosis of the secretory tissues”. Also, the “single oral dose required to induce widespread, non-fatal injury to the lactating mammary gland” value in the data set on lactating mammary gland [1] (mouse, single oral dose) is given as 60 to 100 mg/kg. The “character of the mammary gland injury” value in the data set with lactating mammary gland [1] (mouse, single oral dose, 60 to 100 mg/kg) is “interstitial oedema, congestion and haemorrhage and coagulative necrosis with desquamation of the acinar epithelial cells thereby preventing lactation”. Moreover, the “inhibition of milk secretion” value in the data set on lactating mammary gland [1] (oral dosing) is given as “inhibition of milk secretion through such a necrogenic action on the secretory epithelium”. Moreover, the “damage to lactating mammary gland” value with lactating mammary gland [1] (present studies) is “causes damage both to the lactating mammary gland and the heart muscle”. In addition, the NOAEL in [6] is greater than 100 mg/kg. For the same compound, in the data set on myocardium (100 mg/kg orally, seven days previously), the “myocardium histology (FIG. 9C)” value was “marked atrophy of muscle fibres (M) interstitial haemorrhage (H) and early scar tissue formation (S)”. In addition, the myocardial fibrosis entry in the data set on myocardium (doses above 100 mg/kg, animals surviving for seven days) is “areas of myocardial fibrosis can be observed in animals surviving for seven days”. The “hydrothorax / pulmonary oedema” value with myocardium (doses above 100 mg/kg, more severely affected animals) is recorded as “Hydrothoraz and/or pulmonary oedema may be present in more severly affected animals”. For the same compound, in the data set with myocardium (present studies), the “damage to heart muscle” value is “causes damage both to the lactating mammary gland and the heart muscle”. In the data set with silkworm larvae, the “growth of silkworm larvae” value is “inhibited the growth of silkworm larvae”. The antifungal activity result in data set [7] (isolated from avocado fruit peel or whole fruits, refs (ii) to (xiii)) is listed as “exhibits antifungal activity in relation to the fungus Colletotrichum gloeosporioides”. Besides, in data set [7] (natural compound, reference (v)), the “loss of activity on double bond oxidation” value is recorded as “loses activity due to double bond oxidation”. Besides, the “toxicity for heart and lactating mammary gland” value in data set [8] is “responsible for demonstrated toxicity for the heat and lactating mammary gland of the mouse”.
